Results reported in patent US20250221950A1, “GABA-CONTAINING COMPOSITION” (priority 2021, published 2025).
Entries after “also recorded” stand apart in the source; their conditions may differ. Ends that are not written are not given here.

Tests used:
[1] = system: Healthy C57BL/6J male mice; assay: Food intake after intragastric GABA just before feeding in fasted healthy mice (Example 1, FIG. 1A); type: in vivo; conditions: GABA solution 20 mg/kg or 200 mg/kg po just before feeding, compared with physiological saline
Procedure: As experimental animals, C57BL/6J male mice were used. The mice were acclimated to the environment by preliminary rearing for 1 week or more in individual cages in the free-eating and drinking environment at a temperature of 23±2° C., a humidity of 55±10%, a 12 hour light-dark cycle (light period: 7:30 to 19:30). The animal experiment was conducted with approval in accordance with the guidelines of the Committee for Animal Research of Kyoto Prefectural University. […] In each administration, the mice were intragastrically administered (po) a single dose of physiological saline as a control group and GABA (2 mg/kg, 20 mg/kg, 200 mg/kg) as a test group at a dose of 10 ml/kg using a sonde (stainless steel feeding needle). […] The amount of the feed taken is expressed as the cumulative food intake (kcal) or the food intake at each time (kcal) (FIG. 1A). The cumulative food intake (kcal) also includes energy of administered GABA (3.95 kcal/g).

[2] = system: sensory nerve disorder model mice by subcutaneous administration of capsaicin; assay: Food intake after intragastric GABA in capsaicin sensory nerve disorder model mice (FIG. 1B); type: in vivo; conditions: GABA 200 mg/kg intragastric, capsaicin treatment
Procedure: (§1) In order to examine the involvement of the vagus nerve which is a visceral sensory nerve, the food intake reducing effect by intragastric administration of GABA was examined using sensory nerve disorder model mice by subcutaneous administration of capsaicin or subdiaphragmatic vagotomized mice. The sensory nerve disorder model mice by subcutaneous administration of capsaicin were prepared as follows. 50 mg/kg of capsaicin (5 ml/kg, solution composition: 10% ethanol, 10% Tween 80, 80% physiological saline) was subcutaneously administered to C57BL/6J male mice under tribromoethanol (200 mg/kg, intraperitoneal administration (ip)) anesthesia, and after 2 days, 50 mg/kg of capsaicin was subcutaneously administered under similar anesthesia. Further, after 2 days, 10 mg/kg of capsaicin was intraperitoneally administered under no anesthesia. After a recovery period of 5 to 7 days, an experiment of food intake was performed. In sham operation and subdiaphragmatic vagotomy, surgery was performed on C57BL/6J male mice under tribromoethanol (200 mg/kg, ip) anesthesia. […] All the mice were fasted overnight (16 hours) on the day before the experiment of food intake, then intragastrically administered a single dose of physiological saline or GABA (200 mg/kg) from 9:45, and fed at 10:00, and the food intake by free-feeding was measured over time. […]

[3] = system: subdiaphragmatic vagotomized mice; assay: Food intake after intragastric GABA in subdiaphragmatic vagotomized mice (FIG. 1B); type: in vivo; conditions: GABA 200 mg/kg intragastric, afferent vagotomy
Procedure: as §1

sham-operated mice = assay: Food intake after intragastric GABA in sham-operated mice (FIG. 1B); type: in vivo; conditions: GABA 200 mg/kg intragastric
Procedure: as §1

[4] = system: Healthy C57BL/6J male mice; assay: Food intake after GABA, enteral nutrient or both 30 minutes before feeding, healthy mice (Example 2, FIG. 2); type: in vivo
Procedure: Saline (40 ml/kg, po), GABA (200 mg/kg, po), EnsureH (40 ml/kg, po, 1.5 kcal/g) which is an enteral nutrient manufactured by Abbott Japan LLC, or EnsureH+GABA (GABA 200 mg/kg in Ensure, 40 ml/kg, po) were administered from 9:15. The mice were fed 30 minutes after administration, and freely fed. […] At 0.5 h or after, the cumulative food intake (kcal) of the forcibly administered solution and the feed taken was shown (FIG. 2).

vagal afferent nerves = assay: pERK1/2 immunostaining of nodose ganglion, nucleus tractus solitarius and area postrema (Example 4, FIG. 4, 5); type: in vivo, mice; conditions: 30 minutes
Procedure: C57BL/6J male mice were acclimated to the environment and experimental work by preliminary rearing and handling for 1 week or more in individual cages. […] They were post-fixed, and a frozen section specimen was prepared. Using this frozen section specimen, immunostaining of phosphorylated ERK1/2 (pERK1/2), which is a neural activation marker, was performed, and each organ section was photographed with a fluorescence microscope and analyzed.

GIP [5] = assay: Blood total GIP concentration 30 minutes after intragastric administration (Example 5, FIG. 6); type: in vivo, mice
Procedure: (§2) Healthy C57BL/6J male mice were fasted for 16 hours from 18:00 the day before the experiment. At 10:00, various solutions shown in the figure were intragastrically administered (40 ml/kg). Thirty minutes after administration, blood was collected from the portal vein under isoflurane anesthesia. An anticoagulant (heparin (final concentration 50 IU/ml)) and a peptide degradation inhibitor (aprotinin (final concentration 500 KIU/ml) and vildagliptin (final concentration 10 μM)) were added in advance to the sampling syringe. The collected blood was cooled and centrifuged and stored at −80° C. until the obtained plasma was analyzed. The total GIP concentration (A) and the total GLP-1 concentration (B) in the blood were analyzed using ELISA kits (EZGLP1T-36K and EZRMGIP-55K) manufactured by Millipore Corporation.

GLP-1 [6] = assay: Blood total GLP-1 concentration 30 minutes after intragastric administration (Example 5, FIG. 6); type: in vivo, mice
Procedure: as §2

human subjects = assay: Human test: VAS satiety and appetite, and calorie intake of a lunch box after GABA intake (Example 6); type: in vivo; conditions: GABA 100 mg before lunch box, versus placebo
Procedure: It was examined whether GABA administration also affects the food intake in humans. In 13 human subjects (25 to 43 years old, 5 males and 8 females), changes in the food intake in the presence or absence of GABA administration were confirmed in the following test outline. Specifically, each subject was fasted from 21:00 on the day before the test, and subjective evaluation (satiety, hunger, appetite) was performed by the VAS questionnaire at 12:00 on the test day. Thereafter, a sample (placebo group: dextrin, GABA group: GABA 100 mg) was taken in together with 50 mL of water, and immediately after that, diet (lunch box) was taken. Immediately after diet, at 30 minutes, 60 minutes, and 120 minutes after diet, subjective evaluation (satiety, hunger, appetite) was performed again by the VAS questionnaire, and the remaining amount of a lunch box was photographed to calculate intake kcal.

GIP [7] = assay: Glucose-induced GIP secretion, portal plasma ELISA (Example 7, FIG. 10); type: in vivo, mice; conditions: GABA (2, 20, 200 mg/kg) with glucose 1 g/kg oral, 15 minutes
GLP-1 [8] = assay: GLP-1 secretion after glucose with or without GABA, portal plasma ELISA (Example 7, FIG. 10); type: in vivo, mice; conditions: addition of GABA (2, 20, 200 mg/kg) to glucose 1 g/kg oral, 15 minutes
GLP-1 [9] = assay: Fructose-induced GLP-1 secretion, portal plasma ELISA (Example 9, FIG. 13); type: in vivo, mice
[10] = system: Healthy C57BL/6J male mice; assay: Food intake after sucrose with or without GABA (Example 10, FIG. 14); type: in vivo
Procedure: Thereafter, the mice were fed at 10:00 on the test day, and the food intake by free-feeding was measured over time.

GIP [11] = assay: Isomerized sugar-induced GIP secretion, portal plasma ELISA (Example 9, FIG. 13); conditions: GABA 60 mg/kg po with glucose+fructose 1 g/kg each
[12] = system: Healthy C57BL/6J male mice; assay: Food intake after glucose, fructose, isomerized sugar with or without GABA (Example 8, FIG. 11, 12); type: in vivo; conditions: fructose 1 g/kg po alone, compared with control group (saline)
Procedure: Thereafter, the mice were fed at 10:00 on the test day, and the food intake by free-feeding was measured over time. […] The effect of GABA on the inhibitory action on fructose-induced satiety by glucose was examined. […] Thereafter, the mice were fed at 10:00 on the test day, and the food intake by free-feeding was measured over time.

C57BL/6J male mice = assay: Conditioned taste aversion test (saccharin preference, Example 3, FIG. 3); type: in vivo; conditions: lithium chloride 3 mmol/kg intraperitoneal
Procedure: C57BL/6J male mice reared in individual cages were given two bottles of water only for 2 hours from 10:00 to 12:00 for 5 days, whereby the mice were acclimated to the water restriction schedule. On day 6, a 0.15% saccharin solution was presented for 30 minutes, and thereafter, lithium chloride (3 mmol/kg) was intraperitoneally administered, whereby the mice were made to acquire an aversion to the taste of the saccharin solution (conditioning). In the same manner, a control group to which physiological saline (10 mL/kg) was intragastrically administered and a test group to which GABA (200 mg/kg) was intragastrically administered were prepared. On day 7 serving as a rest day, the above-described water restriction schedule was performed. On day 8 serving as a test day, two bottles of a 0.15% saccharin solution and water were simultaneously presented for 30 minutes, and the preference of the saccharin solution (saccharin intake/total intake of two bottles×100, %) was determined.

[13] = system: afferent nerves in the hepatic branch of the vagus nerve; conditions: administration into the hepatic portal vein; J Auton Nerv Syst. 1996; cited from earlier work
obese patients = conditions: Bergmann et al. 2019, cited from earlier work
[14] = GABA addition to enteral nutrients, 30 minutes after administration
[15] = GABA alone, intragastric 40 ml/kg, 30 minutes after administration
[16] = addition of GABA to the liquid food (EnsureH), 30 minutes

Compound: NCCCC(=O)O [GABA, γ-Aminobutyric acid]
- fasting food intake within 1 hour from the start of diet after fasting ([1]; 16 h fasted): significantly reduced
- food intake within 2 hours from the start of diet after fasting ([1]; 16 h fasted): reduces
- food intake after 2 hours from the start of eating [1]: not always changed
- ability to induce the transient satiety or to suppress binge eating on a fasting condition (food intake) [2]: impaired
- ability to induce the transient satiety or to suppress binge eating on a fasting condition (food intake) [3]: impaired
- ability to induce the transient satiety or to suppress binge eating on a fasting condition (food intake) (sham-operated mice): similarly observed
- eating behavior after the start of eating ([4]; GABA 200 mg/kg po alone 30 minutes before eating, compared with physiological saline): not different
- satiety via vagal afferent nerves ([4]; GABA addition to enteral nutrients, 30 minutes before feeding): enhances
- food intake reducing effect ([4]; administration of GABA 30 minutes before diet): greatly reduced
- afferent vagal activation by nutrient (pERK1/2) (vagal afferent nerves; GABA 200 mg/kg in EnsureH 40 ml/kg po, compared with EnsureH alone): significantly enhances
- afferent vagal activity (neuron activities of vagal afferent nerves, nucleus tractus solitarius, area postrema; pERK1/2) (vagal afferent nerves; GABA alone 200 mg/kg po, compared with physiological saline): does not affect
- GIP secretion (blood GIP increase by nutrient) (GIP [5]; [14]): suppress; also recorded: suppresses
- blood GIP concentration (GIP [5]; [15]): no change
- GIP concentration relative to liquid food alone (GIP [5]; [16]): about ⅓
- GLP-1 secretion (blood GLP-1 increase by nutrient) (GLP-1 [6]; [14]): increase; also recorded: promotes
- blood GLP-1 concentration (GLP-1 [6]; [15]): no change
- GLP-1 concentration relative to liquid food alone (GLP-1 [6]; [16]): approximately double
- feeling of satiety (VAS) (human subjects; immediately after diet, 30 minutes and 60 minutes after diet): significantly increased
- appetite after diet (VAS) (human subjects): significantly reduced; also recorded: suppressed
- calorie intake (human subjects): significantly low value
- feeling of satiety, area under the curve (AUC) (human subjects): significant increase; also recorded: significantly increased
- glucose-induced GIP secretion (GIP [7]): suppresses
- GLP-1 secretion (GLP-1 [8]): does not significantly enhance
- fructose-induced GLP-1 secretion (GLP-1 [9]; GABA 60 mg/kg po): further enhances
- GLP-1 secretion (GLP-1 [9]; further addition of GABA 60 mg/kg po to glucose+fructose 1 g/kg each): enhanced
- feeling of satiety ([10]; GABA 200 mg/kg po taken together with sucrose 2 g/kg po): significantly induces
- isomerized sugar-induced GIP secretion (GIP [11]): suppresses

Compound: O=C(CO)[C@@H](O)[C@H](O)[C@H](O)CO [fructose, reference compound]
- food intake [12]: suppressed
- GLP-1 secretion (GLP-1 [9]; fructose 1 g/kg po): enhances

Compound: [Cl-].[Li+] [lithium chloride]
- aversion (C57BL/6J male mice): induces aversion
- preference of saccharin (C57BL/6J male mice; conditioning day 6, test day 8): reduced

Compound: OC[C@H]1O[C@@](CO)(O[C@H]2O[C@H](CO)[C@@H](O)[C@H](O)[C@H]2O)[C@@H](O)[C@@H]1O [sucrose, reference compound]
- satiety inducing action (intake inhibitory action) ([10]; sucrose 2 g/kg po alone): not observed

Compound: Glucose-dependent insulinotropic polypeptide [GIP]
- neural activity of afferent nerves in the hepatic branch of the vagus nerve [13]: does not result in any change
- effect of GLP-1 on energy intake (obese patients; GIP administered simultaneously with GLP-1): attenuated

Compound: glucagon-like peptide-1 (HAEGTFTSDVSSYLEGQAAKEFIAWLVKGR; ends and bridges not checked; UniProt P01275 98-127, looked up) [GLP-1, incretin hormone produced in endocrine L cells]
- neural activity of afferent nerves in the hepatic branch of the vagus nerve [13]: significant increase
- energy intake (obese patients; GLP-1 intravenously to obese patients): reduced
